From patent US10577383B2, “Macrocyclic inhibitors of myeloperoxidase” (BRISTOL-MYERS SQUIBB COMPANY, priority 2016, dated 2020)
Like-named read-outs stand apart in the source and are kept apart here.

How the values were obtained:
myeloperoxidase [1] = molecular target: T1, myeloperoxidase (Homo sapiens (Human), UniProt P05164); assay: MPO Peroxidation Assay (Amplex Red Assay); format: biochemical; settings: MPO peroxidation activity, 100 mM KPi (pH 7.4), ten minute preincubation; potency ranges defined in nM
Procedure: MPO Peroxidation Assay (Amplex Red Assay)
MPO peroxidation activity was measured in 100 mM KPi (pH 7.4) by utilizing the non-fluorescent reagent Amplex Red (Invitrogen Cat. #A12222) which can be oxidized to the highly fluorescent resorufin. Amplex Red is oxidized by the peroxidase action of MPO to resorufin. Reactions were carried out in 50 μL total volume by adding a 25 μL mixture of 200 pM myeloperoxidase and 40 nM H2O2 (Sigma #349887) to 100 nL inhibitor in 100% DMSO in a 384 well Perkin Elmer Optiplate. Enzyme and compound were preincubated for ten minutes at room temperature.
After the ten minute preincubation, 25 μL of an Amplex Red mixture containing 200 μM Amplex Red and 10 mM H2O2 was added to the plate. Kinetic determinations were carried out immediately on a Perkin Elmer Envision (15 minute kinetic read, Ex: 535 nm, Em: 590 nm).
(§1) IC50 values were calculated by determining the slope of the linear portion of the kinetic trace (180-540 secs), and using that calculated slope to determine % inhibition occurring at each concentration of inhibitor using the following equation:
(§2) [formula] where A=minimal Y value (activity level of inhibited sample), B=maximal Y value (activity level of uninhibited sample), C=Log IC50, D=Hill Slope, x=concentration of inhibitor. MPO Chlorination Assay (APF Assay) MPO chlorination activity was measured in 100 mM KPi (pH 7.4) by utilizing the non-fluorescent reagent Aminophenyl fluorescein (APF, Invitrogen Cat. #A36003). APF is cleaved by (—OCl) to yield the fluorescent compound fluorescein. Reactions were carried out in 50 μL total volume by adding a 25 μL mixture of 200 pM myeloperoxidase and 120 mM NaCl to 100 nL inhibitor in 100% DMSO in a 384 well, non-binding surface clear bottom plate (Corning #3655). Enzyme, inhibitor, and chloride were preincubated for ten minutes at room temperature.

myeloperoxidase [2] = molecular target: T1, myeloperoxidase; assay: MPO Chlorination Assay (APF Assay); format: biochemical; settings: MPO chlorination activity, 100 mM KPi (pH 7.4), 120 mM NaCl, ten minute preincubation; potency ranges defined in nM
Procedure: as §2
After the ten minute preincubation, 25 μL of an APF mixture containing […], 120 mM NaCl and 10 μM H2O2 was added to the plate using the internal dispensing system of a Hammatsu FDSS 6000. Kinetic determinations were carried out immediately on the FDSS 6000 (3 minute kinetic read, 1 read every second, ex: 485 nm, em: 535 nm). IC50 values for inhibitors were calculated by taking the slope of the linear portion of the kinetic measurement (20 seconds to 80-120 secs).
as §1
[formula] where A=minimal Y value (activity level of inhibited sample), B=maximal Y value (activity level of uninhibited sample), C=Log IC50, D=Hill Slope, x=concentration of inhibitor. EPX Bromination Assay

T1 sequence (P05164 49-745): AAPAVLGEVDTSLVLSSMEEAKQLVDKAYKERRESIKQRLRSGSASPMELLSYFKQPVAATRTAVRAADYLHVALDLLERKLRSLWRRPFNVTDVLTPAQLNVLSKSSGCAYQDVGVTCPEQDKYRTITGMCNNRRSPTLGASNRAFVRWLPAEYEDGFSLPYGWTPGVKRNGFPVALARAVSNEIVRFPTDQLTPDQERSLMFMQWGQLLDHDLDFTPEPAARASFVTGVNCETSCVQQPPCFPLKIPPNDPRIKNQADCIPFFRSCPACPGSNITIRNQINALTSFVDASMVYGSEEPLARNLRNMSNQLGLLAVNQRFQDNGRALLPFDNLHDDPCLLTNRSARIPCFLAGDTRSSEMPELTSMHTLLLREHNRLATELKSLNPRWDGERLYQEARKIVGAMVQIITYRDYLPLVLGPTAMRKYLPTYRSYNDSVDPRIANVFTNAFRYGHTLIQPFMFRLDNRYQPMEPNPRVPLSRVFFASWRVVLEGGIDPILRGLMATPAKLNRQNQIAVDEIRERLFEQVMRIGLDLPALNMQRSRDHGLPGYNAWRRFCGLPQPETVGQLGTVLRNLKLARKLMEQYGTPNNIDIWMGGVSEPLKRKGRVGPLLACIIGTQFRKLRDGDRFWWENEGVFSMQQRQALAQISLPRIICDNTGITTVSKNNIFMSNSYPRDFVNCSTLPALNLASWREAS

Structure (SMILES) | IC50 (myeloperoxidase [1]) [nM] | IC50 (myeloperoxidase [2]) [nM] | other results
CC(C)(C)OC(=O)N(C/C=C(\I)c1cc(NC(c2ccccc2)(c2ccccc2)c2ccccc2)nc2c1nnn2C(c1ccccc1)(c1ccccc1)c1ccccc1)CC(=O)N(CCc1ccccc1)Cc1cccc(Cn2cc(B3OC(C)(C)C(C)(C)O3)cn2)c1 | – | – | ring closure, isolated yield (the molecule shown is the open-chain precursor, cc_pd bond, 15-membered ring, PdCl2(dppf)-CH2Cl2/K2CO3, dioxane/H2O, 1.07 mM, 85.0 °C): 42%
CC(C)(C)OC(=O)N(C/C=C(\I)c1cc(NC(c2ccccc2)(c2ccccc2)c2ccccc2)nc2c1nnn2C(c1ccccc1)(c1ccccc1)c1ccccc1)CCCOc1cccc(Cn2cc(B3OC(C)(C)C(C)(C)O3)cn2)c1 | – | – | ring closure, isolated yield (the molecule shown is the open-chain precursor, cc_pd bond, 15-membered ring, PdCl2(dppf)-CH2Cl2/K2CO3, dioxane/H2O, 1.04 mM, 85.0 °C): 39.1%
CC(C)(C)OC(=O)N(C/C=C(\I)c1cc(NC(c2ccccc2)(c2ccccc2)c2ccccc2)nc2c1nnn2C(c1ccccc1)(c1ccccc1)c1ccccc1)[C@H]1C[C@H](Cc2ccccc2)[C@H](Oc2cccc(Cn3cc(B4OC(C)(C)C(C)(C)O4)cn3)c2)C1 | – | – | ring closure, isolated yield (the molecule shown is the open-chain precursor, cc_pd bond, 15-membered ring, PdCl2(dppf)-CH2Cl2/K2CO3, dioxane/H2O, 1.0 mM, 85.0 °C): 45%
CC(C)(C)OC(=O)N1CC=C(c2cc(N)nc3[nH]nnc23)c2cnn(c2)Cc2cccc(c2)O[C@@H]2CC13CCC2(c1ccccc1)CC3 | – | – | ring closure, isolated yield (from CC(C)(C)OC(=O)N(C/C=C(\c1cnn(Cc2cccc(O)c2)c1)c1cc(N)nc2[nH]nnc12)C12CCC(c3ccccc3)(CC1)[C@@H](O)C2, ether bond, 15-membered ring, cyanomethylenetributylphosphorane, toluene, 5.0 mM, 100.0 °C): 85%
CC1(C)OB(c2cnn(Cc3cccc(Oc4cccc(CCNC/C=C(\I)c5cc(NC(c6ccccc6)(c6ccccc6)c6ccccc6)nc6c5nnn6C(c5ccccc5)(c5ccccc5)c5ccccc5)c4)c3)c2)OC1(C)C | – | – | ring closure, isolated yield (the molecule shown is the open-chain precursor, cc_pd bond, 17-membered ring, PdCl2(dppf)-CH2Cl2/K2CO3, dioxane/H2O, 2.45 mM, 85.0 °C): 35.1%
C[C@@H](Cc1cccc(Oc2cccc(Cn3cc(B4OC(C)(C)C(C)(C)O4)cn3)c2)c1)N(C/C=C(\I)c1cc(NC(c2ccccc2)(c2ccccc2)c2ccccc2)nc2c1nnn2C(c1ccccc1)(c1ccccc1)c1ccccc1)C(=O)OC(C)(C)C | – | – | ring closure, isolated yield (the molecule shown is the open-chain precursor, cc_pd bond, 17-membered ring, PdCl2(dppf)-CH2Cl2/K2CO3, dioxane/H2O, 1.28 mM, 85.0 °C): 36%
c1ccc(C(Nc2cc(C3CCNCc4cccc(c4)COc4cccc(c4)Cn4cc3cn4)c3nnn(C(c4ccccc4)(c4ccccc4)c4ccccc4)c3n2)(c2ccccc2)c2ccccc2)cc1 (stereo not drawn) | – | – | ring closure, isolated yield (from OCc1cccc(CNCCC(c2cnn(Cc3cccc(O)c3)c2)c2cc(NC(c3ccccc3)(c3ccccc3)c3ccccc3)nc3c2nnn3C(c2ccccc2)(c2ccccc2)c2ccccc2)c1, ether bond, 17-membered ring, PPh3/DIAD, THF): 94%
Nc1cc(C2CCNC34CCC(c5ccccc5)(CC3)[C@H](C4)Oc3cccc(c3)Cn3cc2cn3)c2nn[nH]c2n1 (stereo partly drawn) [Example 27, 7-[(17S)-18-Phenyl-16-oxa-2,8,9-triazapentacyclo[16.2.2.1^1,^1^7.1^6,^9.1^11,^1^5]pentacosa-6(25),7,11(24),12,14-pentaen-5-yl]-3H-[1,2,3]triazolo[4,5-b]pyridin-5-amine] | 1 to 100 | 1 to 100 | –
Nc1cc(C2CCNC34CCC(c5ccccc5)(CC3)[C@@H](C4)Oc3cccc(c3)Cn3cc2cn3)c2nn[nH]c2n1 (stereo partly drawn) [Example 28, 7-[(17R)-18-Phenyl-16-oxa-2,8,9-triazapentacyclo[16.2.2.1^1,^1^7.1^6,^9.1^11,^1^5]pentacosa-6(25),7,11(24),12,14-pentaen-5-yl]-3H-[1,2,3]triazolo[4,5-b]pyridin-5-amine] | 1000 to 10000 | 1 to 100 | –
Nc1cc(C2CCNC34CCC(c5ccccc5)(CC3)[C@H](C4)Oc3cccc(c3)CCn3cc2cn3)c2nn[nH]c2n1 (stereo partly drawn) [Example 29, 7-[(18S)-19-Phenyl-17-oxa-2,8,9-triazapentacyclo[17.2.2.1^1,^1^8.1^6,^9.1^12,^1^6]hexacosa-6(26),7,12(25),13,15-pentaen-5-yl]-3H-[1,2,3]triazolo[4,5-b]pyridin-5-amine] | 1 to 100 | 1 to 100 | –
Nc1cc(C2CCN3C[C@H](Cc4ccccc4)[C@@H](C3)Oc3cccc(c3)Cn3cc2cn3)c2nn[nH]c2n1 (stereo partly drawn) [Example 31, 7-[(3S,4S)-4-Benzyl-2-oxa-6,12,13-triazatetracyclo[13.3.1.1^3,^6.1^1^0,^13]henicosa-1(18),10(20),11,15(19),16-pentaen-9-yl]-3H-[1,2,3]triazolo[4,5-b]pyridin-5-amine] | 101 to 999 | 1 to 100 | –

More lines, main results first:

IC50 (myeloperoxidase [1]) [nM] | IC50 (myeloperoxidase [2]) [nM] | Structure (SMILES) | other results
1 to 100 | 1 to 100 | Nc1cc([C@@H]2CCN[C@H]3C[C@H](Cc4ccccc4)[C@@H](C3)Oc3cccc(c3)Cn3cc2cn3)c2nn[nH]c2n1 [Example 25, 7-[(3R,4S,6S,10S)-4-Benzyl-2-oxa-7,13,14-triazatetracyclo[14.3.1.1^3,^6.1^11,^1^4]docosa-1(19),11(21),12,16(20),17-pentaen-10-yl]-3H-[1,2,3]triazolo[4,5-b]pyridin-5-amine] | –
1 to 100 | 1 to 100 | Nc1cc([C@H]2CCN[C@H]3C[C@H](Cc4ccccc4)[C@@H](C3)Oc3cccc(c3)Cn3cc2cn3)c2nn[nH]c2n1 [Example 26, 7-[(3R,4S,6S,10R)-4-Benzyl-2-oxa-7,13,14-triazatetracyclo[14.3.1.1^3,^6.1^11,^1^4]docosa-1(19),11(21),12,16(20),17-pentaen-10-yl]-3H-[1,2,3]triazolo[4,5-b]pyridin-5-amine] | –
101 to 999 | 1 to 100 | Nc1cc(C2CCNCCc3cccc(c3)-c3cccc(c3)Cn3cc2cn3)c2nn[nH]c2n1 (stereo not drawn) [Example 30, 7-{8,9,15-triazatetracyclo[16.3.1.1^2,^6.1^8,^11]tetracosa-1(22),2,4,6(24),9,11(23),18,20-octaen-12-yl}-3H-[1,2,3]triazolo[4,5-b]pyridin-5-amine] | –
101 to 999 | 1 to 100 | Nc1cc(C2CCN[C@H]3CC[C@@H](COc4cccc(c4)Cn4cc2cn4)C3)c2nn[nH]c2n1 (stereo partly drawn) [Example 32, 7-[(11S,14R)-16-Oxa-3,4,10-triazatetracyclo[15.3.1.1^3,^6.1^11,^1^4]tricosa-1(21),4,6(23),17,19-pentaen-7-yl]-3H-[1,2,3]triazolo[4,5-b]pyridin-5-amine] | –
101 to 999 | 1 to 100 | Nc1cc(C2CCNCC(=O)N(CCc3ccccc3)Cc3cccc(c3)Cn3cc2cn3)c2nn[nH]c2n1 (stereo not drawn) [Example 33, 7-{5-Amino-3H-[1,2,3]triazolo[4,5-b]pyridin-7-yl}-13-(2-phenylethyl)-3,4,10,13-tetraazatricyclo[13.3.1.1^3,^6]icosa-1(19),4,6(20),15,17-pentaen-12-one] | –
1000 to 10000 | 101 to 999 | Nc1cc(C2CCN3C[C@H](COc4cccc(c4)Cn4cc2cn4)[C@@H](c2ccccc2)C3)c2nn[nH]c2n1 (stereo partly drawn) [Example 34, 7-[(12S,13R)-12-Phenyl-15-oxa-3,4,10-triazatetracyclo[14.3.1.1^3,^6.1^1^0,^13]docosa-1(20),4,6(22),16,18-pentaen-7-yl]-3H-[1,2,3]triazolo[4,5-b]pyridin-5-amine] | –
1000 to 10000 | 1000 to 10000 | NC(=O)CN1CCc2cccc(c2)Oc2cccc(c2)Cn2cc(cn2)C(c2cc(N)nc3[nH]nnc23)CC1 (stereo not drawn) [Example 35, 2-(7-{15-Amino-3H-[1,2,3]triazolo[4,5-b]pyridin-7-yl}-18-oxa-3,4,10-triazatetracyclo[17.3.1.1^3,^6.1^13,^17]pentacosa-1(23),4,6(25),13,15,17(24),19,21-octaen-10-yl)acetamide] | –
1000 to 10000 | 1 to 100 | Nc1cc(C2CCNCC(F)(F)c3cccc(c3)Oc3cccc(c3)Cn3cc2cn3)c2nn[nH]c2n1 (stereo not drawn) [Example 36, 7-{12,12-Difluoro-18-oxa-3,4,10-triazatetracyclo[17.3.1.1^3,^6.1^13,^1^7]pentacosa-1(23),4,6(25),13,15,17(24),19,21-octaen-7-yl}-3H-[1,2,3]triazolo[4,5-b]pyridin-5-amine] | –
1000 to 10000 | 101 to 999 | COCCN1CCc2cccc(c2)Oc2cccc(c2)Cn2cc(cn2)C(c2cc(N)nc3[nH]nnc23)CC1 (stereo not drawn) [Example 37, 7-[10-(2-Methoxyethyl)-18-oxa-3,4,10-triazatetracyclo[17.3.1.1^3,^6.1^13,^1^7]pentacosa-1(23),4,6(25),13,15,17(24),19,21-octaen-7-yl]-3H-[1,2,3]triazolo[4,5-b]pyridin-5-amine] | –
